# Results taken from patent EP4610260B1, “ARYL HETEROCYCLIC KV1.3 INHIBITOR, PREPARATION METHOD THEREFOR, AND USE THEREOF” (Shanghai Shenshi Wise Technology Co., Ltd., priority 2022, dated 2024).
# System: Kv1.3 potassium channel
# Assay: Whole-cell patch-clamp assay for inhibitory activity against Kv1.3 (peak current)
# Format: cell-based
# Settings: HEK293 cells stably expressing Kv1.3, room temperature
# Experimental: 1. Assay for inhibitory activity of compounds against Kv1.X
# HEK293 cells stably expressing Kv1.X (Kv1.1, Kv1.2, Kv1.3, Kv1.4, Kv1.5) potassium channels were cultured in DMEM medium containing 10% fetal bovine serum and 800 µg/mL G418 (geneticin) at a culture temperature of 37 °C and a carbon dioxide concentration of 5%.
# 1.2. Fluids used for recording
# The extracellular fluid contained 40 mM NaCl, 3.5 mM KCl, 1 mM MgCl2•6H2O, 2 mM CaCl2•2H2O, 10 mM D-glucose, 10 mM HEPES, 1.25 mM NaH2PO4•2H2O, and the pH was adjusted to 7.4 with NaOH. The intracellular fluid contained 20 mM KCl, 115 mM K-Aspartic, 1 mM MgCl2•6H2O, 5 mM EGTA, 10 mM HEPES, 2 mM Na2-ATP, and the pH was adjusted to 7.2 with KOH.
# The voltage stimulation protocol for recording whole-cell Kv1.X potassium currents via patch-clamp was as follows: After formation of a whole-cell seal, the cell membrane voltage was clamped at -80 mV, and then stepped to +40 mV for 500 ms. Data were acquired repeatedly every 30 s and the effect of the drug on Kv1.X currents was observed. […] Then, a slow capacitance compensation was given, and the membrane capacitance and series resistance were recorded. […]
# Once the whole-cell recorded Kv1.X current stabilized, drug administration was started. […] For each cell, the current detected in the compound-free extracellular liquid was used as its own control group. […]
compound,measurement,value
"Oc1ccc(Cl)c(Cl)c1[C@@H]1Cc2nnc([C@H]3C[C@@H](O)C3)n2C1 [Example 70, 3,4-Dichloro-2-((S)-3-((1s,3R)-3-hydroxycyclobutyl)-6,7-dihydro-5H-pyrrolo[2,1-c][1,2,4]triazol-6-yl)phenol]",IC50,21.6 nM
"Oc1ccc(Cl)c(Cl)c1[C@@H]1Cc2nnc([C@H]3C[C@H](O)C3)n2C1 [Example 71, 3,4-dichloro-2-((S)-3-((1r,3S)-3-hydroxycyclobutyl)-6,7-dihydro-5H-pyrrolo[2,1-c][1,2,4]triazol-6-yl)phenol]",IC50,10.3 nM
